One data set concerns the target T1, CYP2C8 (Homo sapiens, UniProt P10632).
T1 construct: pooled HLMs (0.25 mg/mL); tissue XenoTech H2630; host or cells: pooled human liver microsomes, mixed gender
T1 sequence (P10632 1-490): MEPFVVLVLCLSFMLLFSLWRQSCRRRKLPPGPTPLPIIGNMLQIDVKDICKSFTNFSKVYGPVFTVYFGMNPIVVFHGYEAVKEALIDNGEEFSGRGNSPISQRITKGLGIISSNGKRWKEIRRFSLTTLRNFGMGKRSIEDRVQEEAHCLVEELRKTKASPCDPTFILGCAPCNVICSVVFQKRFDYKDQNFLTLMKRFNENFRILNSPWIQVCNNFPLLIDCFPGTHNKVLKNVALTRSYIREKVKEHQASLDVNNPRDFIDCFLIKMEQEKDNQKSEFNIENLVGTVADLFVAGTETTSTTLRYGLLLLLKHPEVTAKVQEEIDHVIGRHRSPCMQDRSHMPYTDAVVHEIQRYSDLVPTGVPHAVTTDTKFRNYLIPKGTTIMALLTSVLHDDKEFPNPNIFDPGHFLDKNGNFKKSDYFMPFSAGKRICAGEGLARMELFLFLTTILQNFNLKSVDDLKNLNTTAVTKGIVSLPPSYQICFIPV
The data set can be described thus: CYP2C8 inhibition in HLMs (amodiaquine). It is filed as in vitro ADME. As to the method: (§1) Lignans were first dissolved in methanol. […] All microsomal incubations were performed in triplicate.

The target of a further data set is T2, UGT1A4 (Homo sapiens, UniProt P22310).
T2 construct: pooled HLMs (0.25 mg/mL); tissue XenoTech H2630; host or cells: pooled human liver microsomes, mixed gender
T2 sequence (P22310 29-534): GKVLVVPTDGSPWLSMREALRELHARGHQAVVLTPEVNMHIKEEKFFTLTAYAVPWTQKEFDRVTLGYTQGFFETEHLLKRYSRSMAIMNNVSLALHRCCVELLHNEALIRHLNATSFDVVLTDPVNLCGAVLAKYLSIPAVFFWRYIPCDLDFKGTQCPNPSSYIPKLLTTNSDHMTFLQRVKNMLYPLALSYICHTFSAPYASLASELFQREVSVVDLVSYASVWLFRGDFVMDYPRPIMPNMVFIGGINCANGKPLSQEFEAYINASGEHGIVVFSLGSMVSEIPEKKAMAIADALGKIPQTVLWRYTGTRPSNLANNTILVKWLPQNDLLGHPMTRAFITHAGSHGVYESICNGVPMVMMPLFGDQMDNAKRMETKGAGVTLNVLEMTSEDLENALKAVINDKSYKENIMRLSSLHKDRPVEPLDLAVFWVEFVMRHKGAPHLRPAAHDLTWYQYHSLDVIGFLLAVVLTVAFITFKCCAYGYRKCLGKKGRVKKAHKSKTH
The data set can be described thus: UGT1A4 inhibition in HLMs (trifluoperazine). To be noted: average in triplicate, read-out: IC50, UGT 1A4. It is filed as in vitro ADME. As to the method: (§2) The inhibitory potential of six lignans on six UGT activities was evaluated using the previously developed cocktail method with slight modifications. […] These substrates are known to be selective for each UGT isoforms.

A further data set has as its target six UGT enzymes. Put plainly: UGT inhibition in HLMs, summary statements over several isoforms. It is filed as in vitro ADME, human. The settings on record: UGTs other than UGT1A1 and UGT1A3. Here is the method: as §2
For data set [1], the system named is recombinant CYP3A4. To be noted: recombinant CYP3A4 isoform; read-out: IC50, CYP3A-mediated midazolam 1′-hydroxylation; cited from earlier work.
Data set [2] relates to CYP3A. More on the design: method as in PMID 15342469. To be noted: read-out: IC50, CYP3A-mediated testosterone hydroxylase activity; cited from earlier work.
The test system of the next data set is CYP1A2. Also on record: method as in PMID 15342469. The settings on record: cited from earlier work.
Data set [3] deals with CYP2C9. More on the design: method as in PMID 15342469. To be noted: cited from earlier work.
Data set [4] concerns CYP2C19. More on the design: method as in PMID 15342469. The settings on record: cited from earlier work.
For another data set, the system named is CYP2D6. Also on record: method as in PMID 15342469. The settings on record: cited from earlier work.
In the next data set the test system is UGT1A3. More on the design: method as in PMID 23339253. To be noted: cited from earlier work.
Another data set deals with CYP3A4. The settings on record: in the presence of the inhibitor; cited from earlier work.
Data set [5] relates to CYP3A. Also on record: method as in PMID 20448858. The settings on record: read-out: IC50, CYP3A-mediated midazolam hydroxylation; cited from earlier work.
Data set [6] deals with CYP2C9 (Homo sapiens, UniProt P11712). The data set can be described thus: in vitro. To be noted: microsomes, pH 7.4, IC50 Shift.
Description: (§3) Lignans were first dissolved in methanol. The final organic solvent concentration in the incubation media was ≤1.0% (v/v). The microsomal incubation was conducted using two cocktail sets containing non-interactive substrates: set A containing phenacetin, bupropion, amodiaquine, diclofenac, S-mephenytoin, and dextromethorphan as substrates for CYP1A2, CYP2B6, CYP2C8, CYP2C9, CYP2C19, and CYP2D6, respectively; and set B containing coumarin and chlorzoxazone as substrates for CYP2A6 and CYP2E1, and midazolam, nifedipine, and testosterone as substrates for CYP3A4 (Table 1). These substrates are known to be selective for each P450 isoforms. Incubation mixtures containing potassium phosphate buffer (0.1 M, pH 7.4), pooled HLMs (0.25 mg/mL), P450 probe substrate cocktails, and lignan (0~50 μM) were pre-incubated at 37 °C (5 min). Following pre-incubation, an NADPH generating system (1.3 mM NADP^+, 3.3 mM G6P, 1 unit/mL G6PDH, and 3.3 mM MgCl2) was added to initiate the reaction, and further incubated for 10 min. The reaction was quenched with 50 μL of cold acetonitrile containing internal standard (IS; 7 nM trimipramine). After centrifugation at 14,000 rpm (5 min at 4 °C), aliquots of supernatants were filtered through a 0.2 μm membrane filter and were measured by liquid chromatography-tandem mass spectrometry (LC-MS/MS). All microsomal incubations were performed in triplicate.
For data set [7], the target named is CYP2C19 (Homo sapiens, UniProt P33261). The data set can be described thus: in vitro. The settings on record: microsomes, pH 7.4, IC50 Shift.
Description: as §3
For data set [8], the system named is CYP3A. To be noted: rats; cited from earlier work.
In data set [9] the test system is P450s other than CYP1A2, CYP2B6, CYP2C19, CYP2E1 and CYP3A (range over several isoforms). The data set can be described thus: P450 inhibition in HLMs, summary statements over several isoforms. It is filed as in vitro ADME, human. To be noted: human, pooled human liver microsomes, pH 7.4, probe P450 probe substrate cocktails (sets A and B); HLMs; reversible inhibition; P450s other than CYP1A2, CYP2B6, CYP2C19, CYP2E1 and CYP3A. Here is the method:
as §1

In another data set the test system is nine P450 enzymes. The data set is described as above. It is filed as in vitro ADME, human. The settings on record: HLMs pre-incubated in the presence of NADPH. Here is the method:
as §1

The test system of data set [10] is recombinant CYP3A4. The settings on record: rCYP3A4, fluorescent substrate; cited from earlier work.
[11] abbreviates: 30 min pre-incubation with NADPH generating system, read-out: IC50 TDI, CYP2C8.
[12] abbreviates: reversible inhibition, read-out: IC50 RI, CYP2C8.

Read-outs that look alike come from different tables or passages of the source.

Sequence of CYP2C9 (Homo sapiens, UniProt P11712) (P11712 whole entry): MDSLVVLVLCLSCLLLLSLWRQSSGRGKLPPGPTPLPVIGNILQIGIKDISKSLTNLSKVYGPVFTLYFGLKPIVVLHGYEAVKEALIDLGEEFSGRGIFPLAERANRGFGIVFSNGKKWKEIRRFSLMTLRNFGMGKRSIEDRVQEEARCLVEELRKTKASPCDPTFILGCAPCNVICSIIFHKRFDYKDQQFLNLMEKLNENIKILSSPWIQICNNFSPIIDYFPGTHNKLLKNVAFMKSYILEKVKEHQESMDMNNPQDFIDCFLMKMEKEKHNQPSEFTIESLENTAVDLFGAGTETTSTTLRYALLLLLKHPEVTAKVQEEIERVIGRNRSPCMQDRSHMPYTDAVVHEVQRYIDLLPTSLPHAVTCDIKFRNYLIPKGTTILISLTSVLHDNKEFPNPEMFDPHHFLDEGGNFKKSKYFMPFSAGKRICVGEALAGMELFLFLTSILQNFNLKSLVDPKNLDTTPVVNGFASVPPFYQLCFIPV
Sequence of CYP2C19 (Homo sapiens, UniProt P33261) (P33261 whole entry): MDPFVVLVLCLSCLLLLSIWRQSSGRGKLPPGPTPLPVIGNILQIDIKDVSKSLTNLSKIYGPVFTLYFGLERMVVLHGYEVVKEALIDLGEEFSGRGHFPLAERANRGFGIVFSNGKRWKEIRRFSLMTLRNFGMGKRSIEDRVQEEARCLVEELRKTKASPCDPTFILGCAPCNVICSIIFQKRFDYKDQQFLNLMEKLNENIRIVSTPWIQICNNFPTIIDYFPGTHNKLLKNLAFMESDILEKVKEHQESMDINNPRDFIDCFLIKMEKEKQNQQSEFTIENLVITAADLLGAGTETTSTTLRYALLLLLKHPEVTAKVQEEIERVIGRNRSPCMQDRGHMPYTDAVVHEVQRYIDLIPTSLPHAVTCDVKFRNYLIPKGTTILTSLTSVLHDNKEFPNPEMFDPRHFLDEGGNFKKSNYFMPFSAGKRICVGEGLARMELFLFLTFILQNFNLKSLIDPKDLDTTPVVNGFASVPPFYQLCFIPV

For `COc1cc2c(c(OC)c1OC)-c1c(cc3c(c1OC)OCO3)C[C@H](C)[C@](C)(O)[C@H]2OC(=O)c1ccccc1` [Gomisin C, gomisin C], the 50% inhibitory concentration (IC50) is 5.8 µM at CYP2C8 (setting [11]); above 50 µM on UGT1A4; above 50 µM at six UGT enzymes; 0.059 µM with recombinant CYP3A4 [1]; 0.26 to 0.62 µM in the data set with CYP3A [2]; above 10 µM in the data set with CYP1A2. In addition, the IC50 in the data set on CYP2C9 [3] is above 10 µM; in the data set with CYP2C19 [4], above 10 µM; in the data set with CYP2D6, above 10 µM; in the data set with UGT1A3, 12.5 µM. For the same compound, the “Estimated increase of AUC of drugs predominantly biotransformed by CYP3A4” value in the data set on CYP3A4 is 22–321%.
Consider `COc1cc2c(c(OC)c1OC)-c1c(cc3c(c1OC)OCO3)C[C@H](C)[C@H](C)C2` [Gomisin N, gomisin N], for which the IC50 was 9.9 µM on CYP2C8 (setting [11]); 31.7 µM on CYP2C8 (setting [12]); above 50 µM at UGT1A4; 5.5 µM in the data set on CYP3A [5]; above 10 µM in the data set on CYP1A2; above 10 µM with CYP2C9 [3]. Besides, the IC50 in the data set on CYP2C19 [4] and in the data set with CYP2D6 was above 10 µM throughout. Also, the IC50 shift at 10 min on CYP2C8 (human, pooled human liver microsomes, pH 7.4, probe amodiaquine, RI/TDI fold shift) was 3.2; at CYP2C9 [6], above 1.8; on CYP2C19 [7] it was above 1.8. In addition, the “Oral bioavailability of drugs metabolized by CYP3A, including midazolam” value in the data set on CYP3A [8] was “increase”.
Regarding `COc1cc2c(c(OC)c1OC)-c1c(cc(OC)c(OC)c1OC)C[C@](C)(O)[C@@H](C)C2` [Schisandrin, schisandrin], the IC50 on CYP2C8 (setting [11]) was above 50 µM; on CYP2C8 (setting [12]), 22 µM; at UGT1A4, above 50 µM; in the data set on recombinant CYP3A4 [10], 32 µM. For the same compound, the half-maximal inhibitory concentration (IC50) at 10 min in data set [9] lay within 22 to 43 µM. Also, the “Inhibitory potential against nine P450s after pre-incubation with NADPH compared to untreated HLMs” value in the data set with nine P450 enzymes was “did not increase”.
For the compound `COc1c2c(cc3c1-c1c(cc4c(c1OC)OCO4)C[C@H](C)[C@H](C)C3)OCO2` [Wuweizisu C, wuweizisu C], the IC50 on CYP2C8 (setting [11]) was 14.6 µM; on CYP2C8 (setting [12]), 21 µM; on UGT1A4 it was above 50 µM.
